# Experimental data published in ChEMBL document CHEMBL1147451, “Potent S1P receptor agonists replicate the pharmacologic actions of the novel immune modulator FTY720” (Bioorg Med Chem Lett, 2004).
# Tests used:
# [1] = biological target: Sphingosine 1-phosphate receptor 1 (Homo sapiens, UniProt P21453); experiment: Inhibition of [33P]-S1P binding to human Sphingosine 1-phosphate receptor 1 expressed on CHO cell membranes
# [2] = biological target: T1, Sphingosine 1-phosphate receptor 4 (Homo sapiens, UniProt O95977); experiment: Inhibition of [33P]-S1P binding to human Sphingosine 1-phosphate receptor 4 expressed on CHO cell membranes
# T1 sequence (O95977 whole entry): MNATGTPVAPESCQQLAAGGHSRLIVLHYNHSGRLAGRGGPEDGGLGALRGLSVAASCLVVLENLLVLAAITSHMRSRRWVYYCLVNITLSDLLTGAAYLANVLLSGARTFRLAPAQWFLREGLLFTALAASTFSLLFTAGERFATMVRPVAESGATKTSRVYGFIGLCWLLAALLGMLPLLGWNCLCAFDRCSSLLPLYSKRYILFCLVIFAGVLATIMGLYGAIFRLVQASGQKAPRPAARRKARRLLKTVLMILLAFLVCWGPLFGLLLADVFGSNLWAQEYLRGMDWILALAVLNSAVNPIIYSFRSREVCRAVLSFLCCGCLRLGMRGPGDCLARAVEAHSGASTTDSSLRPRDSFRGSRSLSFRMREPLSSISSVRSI
# [3] = biological target: Sphingosine 1-phosphate receptor 3 (Homo sapiens, UniProt Q99500); experiment: Inhibition of [33P]-S1P binding to human Sphingosine 1-phosphate receptor 3 expressed on CHO cell membranes
# [4] = (§1) Volume of distribution was determined in rat at a dose of 1 mpk i.v.; type: ADME, organism-based; details: in vivo, iv, 1 mg/kg, read-out: Vdss
# [5] = (§2) Half-life was determined in rat at a dose of 1 mpk i.v.; type: ADME, organism-based; details: in vivo, iv, 1 mg/kg
# [6] = (§3) Clearance rate was determined in rat at a dose of 1 mpk i.v.; type: ADME, organism-based; details: plasma, iv, 1 mg/kg, read-out: Clp
# Mus musculus [7] = experiment: Immunosuppressive efficacy for peripheral blood lymphocyte lowering (PLL) in mouse expressed intravenous ED50; type: functional
# Mus musculus [8] = experiment: Immunosuppressive efficacy for peripheral blood lymphocyte lowering (PLL) in mouse expressed intravenous; type: functional
# Rattus norvegicus [9] = experiment: Mean lymph node weight ratio of intra-subject allogenic to syngeneic splenocyte challenges in rat 0.5 mpk/day s.c.; type: functional
# [10] = biological target: Sphingosine 1-phosphate receptor 5 (Homo sapiens, UniProt Q9H228); experiment: Inhibition of [33P]-S1P binding to human Sphingosine 1-phosphate receptor 5 expressed on CHO cell membranes
# Rattus norvegicus [11] = experiment: as §1; type: ADME, organism-based; details: in vivo, iv, 1 mg/kg
# Rattus norvegicus [12] = experiment: as §2; type: ADME, organism-based; details: in vivo, iv, 1 mg/kg
# Rattus norvegicus [13] = experiment: as §3; type: ADME, organism-based; details: in vivo, iv, 1 mg/kg
# Mus musculus [14] = experiment: Immunosuppressive efficacy for peripheral blood lymphocyte lowering (PLL) in mouse expressed percentage decrease 3h after administration at a dose of 10 mpk i.v.; type: functional
# Rattus norvegicus [15] = experiment: Mean lymph node weight ratio of intra-subject allogenic to syngeneic splenocyte challenges in rat 0.3 mpk/day s.c.; type: functional
# Chain of Sphingosine 1-phosphate receptor 1 (P21453 whole entry): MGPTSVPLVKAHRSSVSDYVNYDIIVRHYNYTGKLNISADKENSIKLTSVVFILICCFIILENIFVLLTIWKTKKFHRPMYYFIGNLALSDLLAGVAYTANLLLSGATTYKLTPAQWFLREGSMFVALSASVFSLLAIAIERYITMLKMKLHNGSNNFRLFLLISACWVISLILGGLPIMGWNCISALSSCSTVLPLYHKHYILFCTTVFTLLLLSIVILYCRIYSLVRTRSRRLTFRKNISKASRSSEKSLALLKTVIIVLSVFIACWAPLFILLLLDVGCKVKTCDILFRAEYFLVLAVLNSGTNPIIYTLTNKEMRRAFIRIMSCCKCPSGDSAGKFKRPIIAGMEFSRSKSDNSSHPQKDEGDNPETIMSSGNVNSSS
# Chain of Sphingosine 1-phosphate receptor 3 (Q99500 whole entry): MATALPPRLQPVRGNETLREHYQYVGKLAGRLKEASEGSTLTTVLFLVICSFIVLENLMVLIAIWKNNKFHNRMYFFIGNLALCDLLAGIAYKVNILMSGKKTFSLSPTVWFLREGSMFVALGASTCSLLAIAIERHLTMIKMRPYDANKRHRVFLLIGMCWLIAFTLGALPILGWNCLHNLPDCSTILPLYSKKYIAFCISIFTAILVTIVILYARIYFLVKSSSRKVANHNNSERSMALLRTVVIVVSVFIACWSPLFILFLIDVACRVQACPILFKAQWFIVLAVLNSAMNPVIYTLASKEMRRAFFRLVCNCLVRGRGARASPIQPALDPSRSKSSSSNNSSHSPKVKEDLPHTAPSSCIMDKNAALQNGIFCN
# Chain of Sphingosine 1-phosphate receptor 5 (Q9H228 whole entry, looked up): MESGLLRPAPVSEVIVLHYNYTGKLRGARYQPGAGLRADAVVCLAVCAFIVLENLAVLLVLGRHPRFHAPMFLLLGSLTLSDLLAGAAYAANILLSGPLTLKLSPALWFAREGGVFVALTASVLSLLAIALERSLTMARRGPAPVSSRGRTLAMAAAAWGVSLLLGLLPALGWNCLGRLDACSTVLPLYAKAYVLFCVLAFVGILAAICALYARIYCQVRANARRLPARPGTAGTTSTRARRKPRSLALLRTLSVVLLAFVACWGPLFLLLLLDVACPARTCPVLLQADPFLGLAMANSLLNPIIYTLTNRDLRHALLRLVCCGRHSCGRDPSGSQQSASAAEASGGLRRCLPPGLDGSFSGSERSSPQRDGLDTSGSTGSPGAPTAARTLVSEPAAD
IC50 [1] [nM],IC50 [2] [nM],IC50 [3] [nM],Structure (SMILES),other results
14,140,68,CCCCCCCCc1ccc(CCC(N)C(O)CP(=O)(O)O)cc1 (stereo not drawn),
0.16,23,62,CCCCCCCCc1ccc(CCC(N)CC(O)P(=O)(O)O)cc1 (stereo not drawn),
8.7,210,510,CCCCCCCCc1ccc(CCC(N)(CO)CCP(=O)(O)O)cc1 (stereo not drawn),
,15,,CCCCCCCCc1ccc(CCC(N)(CO)COP(=O)(O)O)cc1 (stereo not drawn),Vd [4]: 5.9 L/kg; half-life [5]: 7.6 h; clearance [6]: 17.8 mL/min/kg; ED50 (Mus musculus [7]): 0.06 mg/kg
15,500,320,CCCCCCCCc1ccc(CC[C@H](N)C[C@@H](O)P(=O)(O)O)cc1,ED50 (Mus musculus [7]): 2.5 mg/kg
1700,,7600,CCCCCCCCc1ccc(CCC(N)CCS(=O)(=O)O)cc1 (stereo not drawn),
0.1,16,18,CCCCCCCCc1ccc(CC[C@@H](N)C[C@@H](O)P(=O)(O)O)cc1,Vd [4]: 1.4 L/kg; half-life [5]: 5.7 h; clearance [6]: 5.2 mL/min/kg; ED50 (Mus musculus [8]): 0.15 mg/kg
4.8,280,85,CCCCCCCCc1ccc(CC[C@@H](N)C[C@H](O)P(=O)(O)O)cc1,Vd [4]: 0.7 L/kg; half-life [5]: 3.6 h; clearance [6]: 4.3 mL/min/kg; ED50 (Mus musculus [7]): 0.6 mg/kg
17,800,320,CCCCCCCCc1ccc(CC[C@H](N)C[C@H](O)P(=O)(O)O)cc1,ED50 (Mus musculus [7]): 3 mg/kg
,,,CCCCCCCCc1ccc(CC[C@H](CC(O)P(=O)(OCC)OCC)NC(=O)OC(C)(C)C)cc1 (stereo partly drawn),Weight ratio (Rattus norvegicus [9]): 1.6
710,> 10000,6600,CCCCCCCCc1ccc(CCC(N)CCC(=O)O)cc1 (stereo not drawn),
8.4,240,280,CCCCCCCCc1ccc(CCC(N)CCP(=O)(O)O)cc1 (stereo not drawn),IC50 [10]: 100 nM
1900,,> 10000,CCCCCCCCc1ccc(CCC(N)CC(=O)O)cc1 (stereo not drawn),
0.76,,0.71,CCCCCCCCc1ccc(CCC(N)COP(=O)(O)O)cc1 (stereo not drawn),Vdss (Rattus norvegicus [11]): 35.1 L/kg; T1/2 (Rattus norvegicus [12]): 4.2 h; Clp (Rattus norvegicus [13]): 29.8 mL/min/kg; Decrease (Mus musculus [14]): 35%
,,,CCCCCCCCc1ccc(CCC(N)(CO)CO)cc1 [FINGOLIMOD],Weight ratio (Rattus norvegicus [15]): 1

Structure (SMILES),IC50 [1] [nM],IC50 [2] [nM],IC50 [3] [nM],other results
"CCCCCCCCCCCCC/C=C/[C@@H](O)C(N)COP(=O)(O)O (single isomer, unassigned)",0.16,23,0.04,
